# Measured values from article PMC10504874 (Journal of medicinal chemistry, 2021).
# Where two headings read alike, the source gives them in different places. Residues, ends and D or L forms follow the SMILES beside them. *: point of attachment. Cbz = O=C(OCc1ccccc1)*
# Key:
# [1] = biological target: T1, cruzain (Trypanosoma cruzi, UniProt P25779); assay: biochemical; conditions: read-out: Residence time τ=1/kobs
# [2] = biological target: human cathepsin L (Homo sapiens, UniProt P07711); assay: Human cathepsin L inhibition; type: biochemical
# [3] = Stability of prodrugs in buffer without esterase; type: physicochemical; conditions: buffer pH 7.5, over 3 h
# [4] = biological target: T1, cruzain; assay: Cruzain inhibition, fluorogenic substrate Cbz-Phe-Arg-AMC time courses; type: biochemical
# [5] = tested on: T. b. brucei BSFs; conditions: read-out: EC50 in T. b. brucei BSFs; cited from earlier work
# [6] = Pharmacokinetic evaluation in mice by intravenous administration; type: in vivo; conditions: data not shown
# [7] = Detection of aldehyde content using phenylhydrazine; type: physicochemical; conditions: 0.2 mM compound, 1 mM phenylhydrazine; for Reaction with excess phenylhydrazine (in words): 2 h; for kobs of phenylhydrazone formation: Abs 282 nm, pH 7.5 buffer lacking DTT
# [8] = tested on: T. cruzi-infected cardiomyoblasts; assay: T. cruzi-infected C2C12 murine cardiomyoblast assay; type: cell-based; conditions: Trypanosoma cruzi, C2C12, in Mus musculus, 48 h, read-out: T. cruzi-infected cardiomyoblasts EC50, C2C12 cells, T. cruzi Ca-I/72, 2 days, 0.02–40 μM
# [9] = tested on: C2C12 murine cardiomyoblast cells; assay: Toxicity against host cardiomyoblasts in the T. cruzi infection assay; type: cell-based; conditions: at up to 40 μM
# [10] = tested on: T. b. brucei BSFs; assay: Axenic cultures of T. b. brucei bloodstream forms, growth inhibition; conditions: Trypanosoma brucei, read-out: T. b. brucei BSFs EC50
# T1 sequence (P25779 123-337 limits assumed): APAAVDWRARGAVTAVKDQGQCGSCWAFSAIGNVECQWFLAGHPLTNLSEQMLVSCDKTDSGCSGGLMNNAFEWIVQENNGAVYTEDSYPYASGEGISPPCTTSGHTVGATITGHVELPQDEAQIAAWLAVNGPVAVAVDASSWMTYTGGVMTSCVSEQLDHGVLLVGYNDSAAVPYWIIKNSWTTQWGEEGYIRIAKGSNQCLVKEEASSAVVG
# human cathepsin L, sequence (P07711 114-333): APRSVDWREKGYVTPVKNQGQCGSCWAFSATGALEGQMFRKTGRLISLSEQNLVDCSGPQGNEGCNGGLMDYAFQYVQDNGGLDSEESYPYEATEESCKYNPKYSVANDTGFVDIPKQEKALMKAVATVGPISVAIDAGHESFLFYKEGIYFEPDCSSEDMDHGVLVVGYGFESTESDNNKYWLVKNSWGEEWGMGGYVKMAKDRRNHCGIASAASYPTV
smiles,measurement,setting,value
"Cc1ccc2c(c1)C[C@H](NC(=O)[C@H](Cc1ccccc1)NC(=O)OCc1ccccc1)C(O)O2 (stereo partly drawn) [Compound 7, Benzyl ((2S)-1-(((3S)-2-hydroxy-6-methylchroman-3-yl)amino)-1-oxo-3-phenylpropan-2-yl)carbamate]",residence time,[1],2.5 to 5.5 min
CC(C)[C@H](NC(=O)OCc1ccccc1)C(=O)N[C@@H](CC1CCCCC1)C(=O)N[C@H](C=O)Cc1ccc[nH]c1=O [Compound 18],Inhibition of human cathepsin L (in words),[2],inhibited human cathepsin L
O=C(N[C@@H](Cc1ccccc1)C(=O)N[C@H]1Cc2cc(Cl)ccc2OC1O)OCc1ccccc1 (some centres unmarked) [Compound 8],residence time,[1],2.5 to 5.5 min
"CC(=O)OC1Oc2ccccc2C[C@@H]1NC(=O)[C@H](Cc1ccccc1)NC(=O)N1CCN(C)CC1 (stereo partly drawn) [Compound 13, (3S)-3-((S)-2-(4-methylpiperazine-1-carboxamido)-3-phenylpropanamido)chroman-2-yl acetate]",Degradation in buffer without esterase,[3],about 10%
COc1ccccc1C[C@@H](C=O)NC(=O)[C@H](Cc1ccccc1)NCC(=O)OCc1ccccc1 [Compound 5],Fold less active than aldehyde 1 versus cruzain,[4],50 fold
N=C(N)c1ccc(/N=N/Nc2ccc(C(=N)N)cc2)cc1 [diminazene],EC50,[5],990 nM
CN1CCN(C(=O)N[C@@H](Cc2ccccc2)C(=O)N[C@H]2Cc3ccccc3OC2O)CC1 (some centres unmarked) [Compound 12],Half-life in mice (in words),[6],short half-life
same,Reaction with excess phenylhydrazine (in words),[7],remained intact after 2 h
same,kobs of phenylhydrazone formation,[7],negligible
same,residence time,[1],26 min
COc1ccc2c(c1)C[C@H](NC(=O)[C@H](Cc1ccccc1)NC(=O)OCc1ccccc1)C(O)O2 (some centres unmarked) [Compound 6],Fold lower activity than 7,[4],over 3 fold
same,Fold more weakly binding than un-substituted SMAI 2,[4],7 fold
same,residence time,[1],2.5 to 5.5 min
"O=C(N[C@@H](Cc1ccccc1)C(=O)N[C@H]1Cc2ccccc2OC1O)OCc1ccccc1 (stereo partly drawn) [Compound 2, Cbz-Phe-o-Tyr-H]",Ratio Ki*(SMAI)/Ki*(free aldehyde counterpart),"[4]; Ki*(12)/Ki*(11), Ki*(2)/Ki*(1)",110
same,residence time,[1],2.5 to 5.5 min
O=C(N[C@@H](Cc1ccccc1)C(=O)N[C@H]1Cc2cc(F)ccc2OC1O)OCc1ccccc1 (some centres unmarked) [Compound 9],residence time,[1],2.5 to 5.5 min
"O=C[C@H](Cc1ccccc1)NC(=O)[C@H](Cc1ccccc1)NC(=O)OCc1ccccc1 [Compound 1, Cbz-Phe-Phe-H] (Cbz-Phe-Phe-aldehyde)",EC50,[8],400 nM
same,"k4, rate constant for conversion of EI* back to EI","[4]; from replot of kobs vs [I], eq 3",(7.6±0.6)×10^–4 s^–1
same,Toxicity against the host cardiomyoblasts,[9],significant cytotoxicity
same,residence time,[1],52 min
COC(=O)c1ccc2c(c1)C[C@H](NC(=O)[C@H](Cc1ccccc1)NC(=O)OCc1ccccc1)C(O)O2 (some centres unmarked) [Compound 10],Fold increase in potency versus 2,[4],3 fold
same,residence time,[1],2.5 to 5.5 min
"CN1CCN(C(=O)N[C@@H](Cc2ccccc2)C(=O)N[C@H](/C=C/S(=O)(=O)c2ccccc2)CCc2ccccc2)CC1 [K777, reference compound]",EC50,[10],90 ± 60 nM
same,Toxicity against the host cardiomyoblasts,[9],significant cytotoxicity
CC(C)OC1Oc2ccccc2C[C@@H]1NC(=O)[C@H](Cc1ccccc1)NC(=O)N1CCN(C)CC1 (some centres unmarked) [Compound 17],Cruzain inhibition by prodrugs (in words),[4],did not inhibit cruzain
"CCOC1Oc2ccccc2C[C@@H]1NC(=O)[C@H](Cc1ccccc1)NC(=O)N1CCN(C)CC1 (stereo partly drawn) [Compound 16, N-((2S)-1-(((3S)-2-ethoxychroman-3-yl)amino)-1-oxo-3-phenylpropan-2-yl)-4-methylpiperazine-1-carboxamide]",Cruzain inhibition by prodrugs (in words),[4],did not inhibit cruzain
"CN1CCN(C(=O)N[C@@H](Cc2ccccc2)C(=O)N[C@H](C=O)CCc2ccccc2)CC1 [Compound 11, 4-Methyl-N-((S)-1-oxo-1-(((S)-1-oxo-4-phenylbutan-2-yl)amino)-3-phenylpropan-2-yl)piperazine-1-carboxamide]",Reaction with excess phenylhydrazine (in words),[7],completely converted to phenylhydrazone
same,kobs of phenylhydrazone formation,[7],(2.61±0.05)×10^–4 s^–1
"CN1CCN(C(=O)N[C@@H](Cc2ccccc2)C(=O)N[C@@H]2Cc3ccccc3C[C@H]2O)CC1 (mixture of isomers) [Compound 3, N-((S)-1-(((2S,3S)-3-hydroxy-1,2,3,4-tetrahydronaphthalen-2-yl)amino)-1-oxo-3-phenylpropan-2-yl)-4-methylpiperazine-1-carboxamide and N-((S)-1-(((2R,3R)-3-hydroxy-1,2,3,4-tetrahydronaphthalen-2-yl)amino)-1-oxo-3-phenylpropan-2-yl)-4-methylpiperazine-1-carboxamide]",Cruzain inhibition (in words),[4]; at ≤100 μM,did not inhibit cruzain
